Like-named read-outs stand apart in the source and are kept apart here.
Key:
FLT3 = target: T1, FLT3 (Homo sapiens, UniProt P36888); assay: RBC HotSpot Kinase Assay, FLT3
T1 sequence (P36888 610-943 limits assumed): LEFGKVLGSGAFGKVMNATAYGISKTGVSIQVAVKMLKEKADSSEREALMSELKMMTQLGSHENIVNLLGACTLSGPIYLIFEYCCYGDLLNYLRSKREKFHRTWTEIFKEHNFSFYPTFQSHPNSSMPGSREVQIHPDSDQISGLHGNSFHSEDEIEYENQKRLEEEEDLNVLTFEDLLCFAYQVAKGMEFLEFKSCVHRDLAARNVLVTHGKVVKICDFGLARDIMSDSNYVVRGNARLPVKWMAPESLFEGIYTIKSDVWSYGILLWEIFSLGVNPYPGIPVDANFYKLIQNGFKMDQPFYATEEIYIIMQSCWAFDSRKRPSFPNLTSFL

MOLM14 D835Y cells = assay: cells; type: cell-based; settings: 48 hours, Cell Titer Glo, read-out: MOLM14 D835Y IC50
THP1 cells = assay: Combination drug screening, Cell Titer Glo, 10 × 10 matrix, THP1 cells; type: cell-based
MOLM14 F691L cells = assay: cells; type: cell-based; settings: 48 hours, Cell Titer Glo, read-out: MOLM14 F691L IC50
IRAK4 = target: T2, IRAK4 (Homo sapiens, UniProt Q9NWZ3); assay: RBC HotSpot Kinase Assay, IRAK4; settings: IRAK4 IC50
T2 sequence (Q9NWZ3 1-460): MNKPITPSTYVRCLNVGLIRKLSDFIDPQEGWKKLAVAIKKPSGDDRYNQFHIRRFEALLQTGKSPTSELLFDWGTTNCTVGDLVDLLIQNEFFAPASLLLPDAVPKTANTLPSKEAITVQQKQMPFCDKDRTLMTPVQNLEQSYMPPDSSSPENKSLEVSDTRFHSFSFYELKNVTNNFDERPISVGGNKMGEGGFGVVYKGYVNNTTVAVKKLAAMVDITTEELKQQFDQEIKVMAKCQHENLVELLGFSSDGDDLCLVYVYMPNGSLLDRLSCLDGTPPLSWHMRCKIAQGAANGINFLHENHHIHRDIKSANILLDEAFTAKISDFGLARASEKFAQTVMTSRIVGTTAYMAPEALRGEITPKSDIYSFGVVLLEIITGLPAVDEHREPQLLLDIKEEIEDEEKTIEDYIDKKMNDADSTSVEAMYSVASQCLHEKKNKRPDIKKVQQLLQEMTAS

MOLM14(D835Y) cells = type: cell-based; settings: MOLM14(D835Y) cells; for Excess HSA Score: 10 × 10
IRAK1 = IRAK1 (Homo sapiens, UniProt P51617); assay: RBC HotSpot Kinase Assay, IRAK1; settings: IRAK1 IC50
[1] = with (+)-BAY-1251152, single compound range 0-10,000 nM or 0-20,000 nM
[2] = with AMG-232, single compound range 0-10,000 nM or 0-20,000 nM
[3] = with AZD-5363, single compound range 0-10,000 nM or 0-20,000 nM
[4] = with Eprenetapopt/APR-246, single compound range 0-10,000 nM or 0-20,000 nM
[5] = with Ivosidenib, single compound range 0-10,000 nM or 0-20,000 nM
[6] = with Lenalidomide, single compound range 0-10,000 nM or 0-20,000 nM
[7] = with Palbociclib, single compound range 0-10,000 nM or 0-20,000 nM
[8] = with Prednisolone, single compound range 0-10,000 nM or 0-20,000 nM
[9] = with SNDX-5613, single compound range 0-10,000 nM or 0-20,000 nM
[10] = with TNO-155, single compound range 0-10,000 nM or 0-20,000 nM
[11] = with Trametinib, single compound range 0-10,000 nM or 0-20,000 nM
[12] = with Ulixertinib, single compound range 0-10,000 nM or 0-20,000 nM
[13] = with Venetoclax (ABT-199), single compound range 0-10,000 nM or 0-20,000 nM
[14] = combination with (+)-BAY-1251152
[15] = combination with Eprenetapopt/APR-246
[16] = combination with Venetoclax (ABT-199)

Chain of IRAK1 (P51617 whole entry): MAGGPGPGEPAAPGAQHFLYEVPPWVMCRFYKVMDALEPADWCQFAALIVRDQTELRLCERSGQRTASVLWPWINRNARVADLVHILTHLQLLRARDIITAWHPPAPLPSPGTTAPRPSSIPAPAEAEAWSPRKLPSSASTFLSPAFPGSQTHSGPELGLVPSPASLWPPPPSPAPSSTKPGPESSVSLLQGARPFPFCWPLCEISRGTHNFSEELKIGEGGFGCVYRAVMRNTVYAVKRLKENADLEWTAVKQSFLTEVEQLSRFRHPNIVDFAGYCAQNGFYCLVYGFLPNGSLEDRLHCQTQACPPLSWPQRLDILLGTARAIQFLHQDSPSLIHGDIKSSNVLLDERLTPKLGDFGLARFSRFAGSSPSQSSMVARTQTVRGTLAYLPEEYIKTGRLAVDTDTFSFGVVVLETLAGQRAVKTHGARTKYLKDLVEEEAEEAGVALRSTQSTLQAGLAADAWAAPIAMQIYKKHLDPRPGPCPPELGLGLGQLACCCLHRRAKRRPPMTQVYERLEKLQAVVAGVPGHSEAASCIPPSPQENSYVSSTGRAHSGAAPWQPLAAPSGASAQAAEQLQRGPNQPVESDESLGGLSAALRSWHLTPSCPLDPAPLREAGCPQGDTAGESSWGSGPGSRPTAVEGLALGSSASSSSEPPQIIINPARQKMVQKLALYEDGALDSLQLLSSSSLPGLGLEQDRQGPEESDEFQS

## COc1ccn2c(-c3cncc(N[C@@H]4CCCNC4)n3)cnc2c1 [Compound 5, (R)-6-(7-methoxyimidazo[1,2-a]pyridin-3-yl)-N-(piperidin-3-yl)pyrazin-2-amine]
FLT3; FLT3 IC50
  IC50: < 0.5 nM
MOLM14 D835Y cells; Homo sapiens, MOLM-14, 48 h
  IC50: 24 nM
THP1 cells; [1]
  Comments: Synergistic
  Excess HSA Score: −264.5
THP1 cells; [2]
  Comments: Antagonistic
  Excess HSA Score: 105.5
THP1 cells; [3]
  Comments: Synergistic
  Excess HSA Score: −94.57
THP1 cells; [4]
  Comments: Antagonistic
  Excess HSA Score: 163.2
THP1 cells; [5]
  Comments: Antagonistic
  Excess HSA Score: 190
THP1 cells; [6]
  Comments: Antagonistic
  Excess HSA Score: 264.6
THP1 cells; [7]
  Comments: Antagonistic
  Excess HSA Score: 624.7438
THP1 cells; [8]
  Comments: Antagonistic
  Excess HSA Score: 31.68
THP1 cells; [9]
  Comments: Antagonistic
  Excess HSA Score: 340
THP1 cells; [10]
  Comments: Antagonistic
  Excess HSA Score: 28.11
THP1 cells; [11]
  Comments: Antagonistic
  Excess HSA Score: 374.3
THP1 cells; [12]
  Comments: Antagonistic
  Excess HSA Score: 565.8
THP1 cells; [13]
  Comments: Synergistic
  Excess HSA Score: −1771.116
MOLM14 F691L cells; Homo sapiens, MOLM-14, 48 h
  IC50: 55 nM
IRAK4
  IC50: 1 nM
MOLM14(D835Y) cells; [14]
  Excess HSA Score: 11.13
  Comments: Antagonistic
MOLM14(D835Y) cells; combination with AMG-232
  Excess HSA Score: −114.6
MOLM14(D835Y) cells; combination with AZD-5363
  Excess HSA Score: −297.4
MOLM14(D835Y) cells; [15]
  Excess HSA Score: −154.6246
MOLM14(D835Y) cells; combination with Ivosidenib
  Excess HSA Score: −34.74
MOLM14(D835Y) cells; combination with Lenalidomide
  Excess HSA Score: −84.4505
MOLM14(D835Y) cells; combination with Palbociclib
  Excess HSA Score: −483.7
MOLM14(D835Y) cells; combination with Prednisolone
  Excess HSA Score: −69.46
MOLM14(D835Y) cells; combination with SNDX-5613
  Excess HSA Score: −465.3
MOLM14(D835Y) cells; combination with TNO-155
  Excess HSA Score: −575.9
MOLM14(D835Y) cells; combination with Trametinib
  Excess HSA Score: 213.7
MOLM14(D835Y) cells; combination with Ulixertinib
  Excess HSA Score: −1042
  Comments: Synergistic
MOLM14(D835Y) cells; [16]
  Excess HSA Score: −862.5
IRAK1
  IC50: 62 nM

## FC(F)COc1ccn2c(-c3ccnc(N[C@H]4CNCC[C@@H]4F)n3)cnc2c1 [Compound 33, 4-(7-(2,2-difluoroethoxy)imidazo[1,2-a]pyridin-3-yl)-N-((3S,4S)-4-fluoropiperidin-3-yl)pyrimidin-2-amine]
FLT3; FLT3 IC50
  IC50: < 0.5 nM
MOLM14 D835Y cells; Homo sapiens, MOLM-14, 48 h
  IC50: 7 nM
THP1 cells; THP1 cells, 10 × 10, combination with (+)-BAY-1251152
  Excess HSA Score: −13.85
THP1 cells; THP1 cells, 10 × 10, combination with AMG-232
  Excess HSA Score: −215.5
THP1 cells; THP1 cells, 10 × 10, combination with AZD-5363
  Excess HSA Score: −132.5
THP1 cells; THP1 cells, 10 × 10, combination with Eprenetapopt/APR-246
  Excess HSA Score: 545.1487
THP1 cells; THP1 cells, 10 × 10, combination with Ivosidenib
  Excess HSA Score: −154.2
THP1 cells; THP1 cells, 10 × 10, combination with Lenalidomide
  Excess HSA Score: 178.6
THP1 cells; THP1 cells, 10 × 10, combination with Palbociclib
  Excess HSA Score: −194.6
THP1 cells; THP1 cells, 10 × 10, combination with Prednisolone
  Excess HSA Score: 467.2
THP1 cells; THP1 cells, 10 × 10, combination with SNDX-5613
  Excess HSA Score: 587.7
THP1 cells; THP1 cells, 10 × 10, combination with TNO-155
  Excess HSA Score: −195.2
THP1 cells; THP1 cells, 10 × 10, combination with Trametinib
  Excess HSA Score: −463.7
THP1 cells; THP1 cells, 10 × 10, combination with Ulixertinib
  Excess HSA Score: −63.1
THP1 cells; THP1 cells, 10 × 10, combination with Venetoclax (ABT-199)
  Excess HSA Score: −1595
THP1 cells; THP1 cells, combination with Lenalidomide
  Comments: Antagonistic
THP1 cells; THP1 cells, combination with Venetoclax (ABT-199)
  Comments: Synergistic
MOLM14 F691L cells; Homo sapiens, MOLM-14, 48 h
  IC50: 55 nM
IRAK4
  IC50: 2 nM
MOLM14(D835Y) cells; [14]
  Excess HSA Score: 684.1
MOLM14(D835Y) cells; combination with AMG-232
  Excess HSA Score: −604.4
MOLM14(D835Y) cells; combination with AZD-5363
  Excess HSA Score: 320.5
MOLM14(D835Y) cells; [15]
  Excess HSA Score: −279.9
MOLM14(D835Y) cells; combination with Ivosidenib
  Excess HSA Score: −12.14
MOLM14(D835Y) cells; combination with Lenalidomide
  Excess HSA Score: −11.33
MOLM14(D835Y) cells; combination with Palbociclib
  Excess HSA Score: 347
MOLM14(D835Y) cells; combination with Prednisolone
  Excess HSA Score: −659.1
  Comments: Synergistic
MOLM14(D835Y) cells; combination with SNDX-5613
  Excess HSA Score: 95.25
  Comments: Antagonistic
MOLM14(D835Y) cells; combination with TNO-155
  Excess HSA Score: 177.1
MOLM14(D835Y) cells; combination with Trametinib
  Excess HSA Score: −226.8
MOLM14(D835Y) cells; combination with Ulixertinib
  Excess HSA Score: −441.5
MOLM14(D835Y) cells; [16]
  Excess HSA Score: −315.6
IRAK1
  IC50: 30 nM

## CC(O)(c1cn2c(-c3cncc(N[C@H]4CNCC[C@@H]4F)n3)cnc2cn1)C(F)(F)F (single isomer, unassigned) [Compound 78]
FLT3; read-out: FLT3 IC50
  IC50: < 0.5 nM
MOLM14 D835Y cells
  IC50: 193 nM
MOLM14 F691L cells
  IC50: 386 nM
IRAK4
  IC50: < 0.5 nM
IRAK1
  IC50: 7 nM

— patent US20250154144A1 (CHILDREN'S HOSPITAL MEDICAL CENTER, priority 2021, published 2025)
